Measured values reported in PubChem BioAssay (NCI).
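Following 48 hours of exposure in 96-well plates, responses at five concentrations were used to interpolate endpoints linearly. Abbreviation: GI50, concentration required for 50% inhibition of growth. TGI marks complete inhibition of growth.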

Tests used:
Experiment in all cases: NCI tumour cell line growth inhibition, 48 h
[1] = system: COLO 205 colon
[2] = system: KM12 colon
[3] = system: M14 melanoma
[4] = system: HCT-116 colon
[5] = system: SN12C renal
[6] = system: OVCAR-3 ovarian
[7] = system: T-47D breast
[8] = system: SK-MEL-5 melanoma
[9] = system: SF-268 CNS
[10] = system: UO-31 renal
[11] = system: SK-MEL-28 melanoma
[12] = system: MDA-MB-435
[13] = system: U251 CNS
[14] = system: RXF 393 renal
[15] = system: MOLT-4 leukemia
[16] = system: UACC-257 melanoma
[17] = system: HOP-62 NSCLC
[18] = system: HS 578T breast
[19] = system: NCI-H460 lung
[20] = system: OVCAR-5 ovarian
[21] = system: HCC-2998 colon
[22] = system: EKVX NSCLC
[23] = system: SW-620 colon
[24] = system: TK-10 renal
[25] = system: LOX IMVI melanoma
[26] = system: HT29 colon
[27] = system: UACC-62 melanoma
[28] = system: SK-MEL-2 melanoma
[29] = system: OVCAR-8 ovarian
[30] = system: HCT-15 colon
[31] = system: RPMI-8226 leukemia
[32] = system: SF-295 CNS
[33] = system: CAKI-1 renal
[34] = system: MDA-MB-468 breast
[35] = system: MDA-MB-231 breast
[36] = system: CCRF-CEM leukemia
[37] = system: BT-549 breast
[38] = system: ACHN renal
[39] = system: DU-145 prostate
[40] = system: PC-3 prostate
[41] = system: K-562 leukemia
[42] = system: SR leukemia
[43] = system: IGROV1 ovarian
[44] = system: MCF7 breast
[45] = system: NCI-H226 lung
[46] = system: NCI-H23 lung
[47] = system: HL-60(TB) leukemia
[48] = system: NCI-H522 lung
[49] = system: SNB-19 CNS
[50] = system: OVCAR-4 ovarian
[51] = system: MALME-3M melanoma
[52] = system: NCI/ADR-RES ovarian
[53] = system: SK-OV-3 ovarian
[54] = system: SF-539 CNS
[55] = system: 786-0 renal
[56] = system: A498 renal

## CN1CCN(c2ccc(C(=O)/C=C/c3cc(C(F)(F)F)cc(C(F)(F)F)c3)cc2)CC1
[1]
  GI50: 2030 nM
  TGI: 3870 nM
[2]
  GI50: 1760 nM
  TGI: 3820 nM
[3]
  GI50: 1520 nM
  TGI: 2970 nM
[4]
  GI50: 1150 nM
  TGI: 2450 nM
[5]
  GI50: 1300 nM
  TGI: 2590 nM
[6]
  GI50: 1450 nM
  TGI: 2940 nM
[7]
  GI50: 1270 nM
  TGI: 3100 nM
[8]
  GI50: 1550 nM
  TGI: 2900 nM
[9]
  GI50: 1820 nM
  TGI: 3710 nM
[10]
  GI50: 1460 nM
  TGI: 2780 nM
[11]
  GI50: 1680 nM
  TGI: 3050 nM
[12]
  GI50: 1600 nM
  TGI: 3070 nM
[13]
  GI50: 1660 nM
  TGI: 3180 nM
[14]
  GI50: 1190 nM
  TGI: 2570 nM
[15]
  GI50: 1420 nM
  TGI: 5010 nM
[16]
  GI50: 1730 nM
  TGI: 3580 nM
[17]
  GI50: 1860 nM
  TGI: 3750 nM
[18]
  GI50: 4880 nM
  TGI: 34700 nM
[19]
  GI50: 2890 nM
  TGI: > 100000 nM
[20]
  GI50: 1680 nM
  TGI: 3200 nM
[21]
  GI50: 1390 nM
  TGI: 2680 nM
[22]
  GI50: 1870 nM
  TGI: 3410 nM
[23]
  GI50: 1810 nM
  TGI: 4510 nM
[24]
  GI50: 2000 nM
  TGI: 3450 nM
[25]
  GI50: 1350 nM
  TGI: 2630 nM
[26]
  GI50: 1620 nM
  TGI: 3410 nM
[27]
  GI50: 1500 nM
  TGI: 2860 nM
[28]
  GI50: 1730 nM
  TGI: 3230 nM
[29]
  GI50: 1730 nM
  TGI: 4360 nM
[30]
  GI50: 1120 nM
  TGI: 2390 nM
[31]
  GI50: 1440 nM
  TGI: 3800 nM
[32]
  GI50: 1470 nM
  TGI: 2820 nM
[33]
  GI50: 1660 nM
  TGI: 3260 nM
[34]
  GI50: 1240 nM
  TGI: 2560 nM
[35]
  GI50: 1750 nM
  TGI: 3350 nM
[36]
  GI50: 2380 nM
  TGI: 5870 nM
[37]
  GI50: 1330 nM
  TGI: 2660 nM
[38]
  GI50: 1490 nM
  TGI: 2820 nM
[39]
  GI50: 1630 nM
  TGI: 3040 nM
[40]
  GI50: 1640 nM
  TGI: 3320 nM
[41]
  GI50: 1070 nM
  TGI: 6370 nM
[42]
  GI50: 1170 nM
  TGI: 3930 nM
[43]
  GI50: 1650 nM
  TGI: 3150 nM
[44]
  GI50: 1200 nM
  TGI: 2560 nM
[45]
  GI50: 1490 nM
  TGI: 3200 nM
[46]
  GI50: 1510 nM
  TGI: 2970 nM
[47]
  GI50: 1040 nM
  TGI: 2790 nM
[48]
  GI50: 1400 nM
  TGI: 2970 nM
[49]
  GI50: 1730 nM
  TGI: 3100 nM
[50]
  GI50: 1520 nM
  TGI: 3490 nM
[51]
  GI50: 1660 nM
  TGI: 3070 nM
[52]
  GI50: 1640 nM
  TGI: 3640 nM
[53]
  GI50: 2600 nM
  TGI: 6120 nM
[54]
  GI50: 1640 nM
  TGI: 3000 nM
[55]
  GI50: 1680 nM
  TGI: 3110 nM
[56]
  GI50: 17900 nM
  TGI: 35600 nM
